22 molecules from patent US9540343B2 (Gilead Sciences, Inc., priority 2011, dated 2017) can be followed below.

One data set in a line: in vitro. Particulars: human, uninfected MT-4 cells, CC50 (nM), same protocol as Test A, CellTiter-Glo. The procedure, abridged:
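Cytoprotection read-out: CellTiter-Glo chemiluminescence after 5 days at 37 °C of HIV-IIIb-infected MT-4 cells (m.o.i. 0.003) with compound in 10-point 3-fold dilutions, quadruplicate, 10% FBS. Cytotoxicity (CC50) measured identically without virus.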
Background: ATP-based viability assays read luminescence as a measure of living cells.

A further data set has as its system HIV-IIIb. The experiment in a line: Test A: Antiviral assay in MT4 cells. It is filed as cell-based, HIV-1. Particulars: Human immunodeficiency virus 1, IIIB, MT4, 120 h, read-out: % inhibition at 2 μM, percent inhibition of virus-induced cell killing, from dose response curve at 2 uM drug; MT-4 cells infected with HIV-IIIb, 5 days, CellTiter-Glo.

A word on the CC50: it is the concentration at which the toxic effect on the cells reaches its halfway point. Lower therefore signals harm at low concentration. Usually inhibition stands for the change of the read-out against control, counted positive when it falls.

In the data set “in vitro”, `NC(=O)c1cc(-c2cccnc2[C@H](Cc2cc(F)cc(F)c2)NC(=O)Cn2cc(C(F)(F)F)nc2CO)ccc1F` [Example 437, (S)-5-(2-(2-(3,5-difluorophenyl)-1-(2-(2-(hydroxymethyl)-4-(trifluoromethyl)-1H-imidazol-1-yl)acetamido)ethyl)pyridin-3-yl)-2-fluorobenzamide] registered a CC50 at 5 days of more than 53200 nM. Also, the inhibition at 2 µM in the data set with HIV-IIIb stood at 3%.

The molecule `O=C(Cn1nc(C(F)F)c2c1C(F)(F)C1CC21)N[C@@H](Cc1cc(F)cc(F)c1)c1ncccc1-c1ccc2nccn2c1` (stereo partly drawn) [Example 438, (S)—N-(1-(3-(imidazo[1,2-a]pyridine-6-yl)-pyridin-2-yl)-2-(3,5-difluorophenyl)ethyl)-2-(3-(difluoromethyl)-5,6-dihydro-4,5-(methano)-6,6-difluoro-cyclopenta[c]pyrazol-1(4H)-yl)acetamide] returned a CC50 at 5 days in the data set “in vitro” of 12100 nM. Moreover, the inhibition at 2 µM in the data set with HIV-IIIb was 81%.

In “in vitro”, `O=C(Cc1c[nH]c2ccc(F)cc12)N[C@@H](Cc1cc(F)cc(F)c1)c1ncccc1-c1cccnc1` [Example 439, (S)—N-(1-(3,3′-bipyridin-2-yl)-2-(3,5-difluorophenyl)ethyl)-2-(5-fluoro-1H-indol-3-yl)acetamide] came in with a CC50 at 5 days of 21700 nM. Besides, the inhibition at 2 µM in the data set with HIV-IIIb is -2%.

In the data set “in vitro”, `Cn1cc(-c2cccnc2[C@H](Cc2cc(F)cc(F)c2)NC(=O)Cc2c[nH]c3ccc(F)cc23)cn1` [Example 440, (S)—N-(2-(3,5-difluorophenyl)-1-(3-(1-methyl-1H-pyrazol-4-yl)pyridin-2-yl)ethyl)-2-(5-fluoro-1H-indol-3-yl)acetamide] gave a CC50 at 5 days of 21700 nM. For the same molecule, the inhibition at 2 µM in the data set on HIV-IIIb came out at 82%.

Regarding `O=C(Cc1c[nH]c2ccc(F)cc12)N[C@@H](Cc1cc(F)cc(F)c1)c1ncccc1-c1ccc2nonc2c1` [Example 441, (S)—N-(1-(3-(benzo[c][1,2,5]oxadiazol-5-yl)pyridin-2-yl)-2-(3,5-difluorophenyl)ethyl)-2-(5-fluoro-1H-indol-3-yl)acetamide], the CC50 at 5 days in the data set “in vitro” amounted to 8650 nM. The inhibition at 2 µM in the data set on HIV-IIIb came to 35%.

For the molecule `O=C(Cn1nc(C(F)F)c2c1C(F)(F)C1CC21)N[C@@H](Cc1cc(F)cc(F)c1)c1ncccc1-c1cnc2c(c1)CCCN2` (stereo partly drawn) [Example 442, (S)—N-(1-(3-(5,6,7,8-tetrahydro-1,8-naphthyridin-3-yl)-pyridin-2-yl)-2-(3,5-difluorophenyl)ethyl)-2-(3-(difluoromethyl)-5,6-dihydro-4,5-(methano)-6,6-difluoro-cyclopenta[c]pyrazol-1(4H)-yl)acetamide], it took 8880 nM to reach half-maximal cytotoxicity in the data set “in vitro” (CC50 at 5 days). The inhibition at 2 µM with HIV-IIIb came to 79%.

`CS(=O)(=O)n1cc(CC(=O)N[C@@H](Cc2cc(F)cc(F)c2)c2ncccc2-c2ccc(F)c(C(N)=O)c2)c2cc(F)ccc21` [Example 444, (S)-5-(2-(2-(3,5-difluorophenyl)-1-(2-(5-fluoro-1-(methylsulfonyl)-1H-indol-3-yl)acetamido)ethyl)pyridin-3-yl)-2-fluorobenzamide] yielded a CC50 at 5 days in the data set “in vitro” of 15500 nM. The inhibition at 2 µM with HIV-IIIb is 23%.

In “in vitro”, `NC(=O)c1cc(-c2cccnc2[C@H](Cc2cc(F)cc(F)c2)NC(=O)Cc2c[nH]c3ccc(Br)cc23)ccc1F` [Example 445, (S)-5-(2-(1-(2-(5-bromo-1H-indol-3-yl)acetamido)-2-(3,5-difluorophenyl)ethyl)pyridin-3-yl)-2-fluorobenzamide] came in with a CC50 at 5 days of 10700 nM. Also, the inhibition at 2 µM with HIV-IIIb is 114%.

As for `NC(=O)c1cc(-c2cccnc2[C@H](Cc2cc(F)cc(F)c2)NC(=O)Cn2nc(C(F)(F)F)c3c2CCC(=O)C3)ccc1F` [Example 446, (S)-5-(2-(2-(3,5-difluorophenyl)-1-(2-(5-oxo-3-(trifluoromethyl)-4,5,6,7-tetrahydro-1H-indazol-1-yl)acetamido)ethyl)pyridin-3-yl)-2-fluorobenzamide], the CC50 at 5 days in “in vitro” was more than 53200 nM. The inhibition at 2 µM in the data set with HIV-IIIb turned out to be 79%.

In the data set “in vitro”, `O=C(Cc1n[nH]c2ccccc12)NC(Cc1cc(F)cc(F)c1)c1nccnc1-c1ccc(Cl)cc1` (centres unmarked) [Example 447, N-(1-(3-(4-chlorophenyl)pyrazin-2-yl)-2-(3,5-difluorophenyl)ethyl)-2-(1H-indazol-3-yl)acetamide] registered a CC50 at 5 days of 13000 nM. For the same molecule, the inhibition at 2 µM with HIV-IIIb was 0%.

In the data set “in vitro”, `NC(=O)c1cc(-c2cccnc2[C@H](Cc2cc(F)cc(F)c2)NC(=O)Cn2nc(C(F)(F)F)c3c2CCC(O)C3)ccc1F` (stereo partly drawn) [Example 448, 5-(2-((1S)-2-(3,5-difluorophenyl)-1-(2-(5-hydroxy-3-(trifluoromethyl)-4,5,6,7-tetrahydro-1H-indazol-1-yl)acetamido)ethyl)pyridin-3-yl)-2-fluorobenzamide] returned a CC50 at 5 days of more than 53200 nM. For the same molecule, in the data set with HIV-IIIb, the inhibition at 2 µM worked out at 103%.

As to `CC1(C)OB(c2cn(CC(=O)N[C@@H](Cc3cc(F)cc(F)c3)c3ncccc3-c3ccc(F)c(C(N)=O)c3)nc2C(F)(F)F)OC1(C)C` [Example 451B, (S)-5-(2-(2-(3,5-difluorophenyl)-1-(2-(4-(4,4,5,5-tetramethyl-1,3,2-dioxaborolan-2-yl)-3-(trifluoromethyl)-1H-pyrazol-1-yl)acetamido)ethyl)pyridin-3-yl)-2-fluorobenzamide], in “in vitro”, half-maximal cytotoxicity (CC50 at 5 days) was put at 37100 nM. In addition, the inhibition at 2 µM in the data set with HIV-IIIb worked out at 1%.

For the molecule `COC(=O)c1nn(CC(=O)N[C@@H](Cc2cc(F)cc(F)c2)c2ncccc2-c2ccc(F)c(C(N)=O)c2)c2c1COC2` [Example 452C, (S)-methyl 1-(2-((1-(3-(3-carbamoyl-4-fluorophenyl)pyridin-2-yl)-2-(3,5-difluorophenyl)ethyl)amino)-2-oxoethyl)-4,6-dihydro-1H-furo[3,4-c]pyrazole-3-carboxylate], the CC50 at 5 days in the data set “in vitro” is 9070 nM. Also, the inhibition at 2 µM with HIV-IIIb was found to be 4%.

`COC(=O)c1c2c(nn1CC(=O)N[C@@H](Cc1cc(F)cc(F)c1)c1ncccc1-c1ccc(F)c(C(N)=O)c1)COC2` [Example 453, (S)-methyl 2-(2-((1-(3-(3-carbamoyl-4-fluorophenyl)pyridin-2-yl)-2-(3,5-difluorophenyl)ethyl)amino)-2-oxoethyl)-4,6-dihydro-2H-furo[3,4-c]pyrazole-3-carboxylate] displayed a CC50 at 5 days in “in vitro” of more than 53200 nM. For the same molecule, in the data set on HIV-IIIb, the inhibition at 2 µM was found to be 3%.

With `COc1ccc2[nH]cc(CC(=O)NC(Cc3cc(F)cc(F)c3)c3nccnc3-c3ccc(Cl)cc3)c2n1` (centres unmarked) [Example 454, N-(1-(3-(4-chlorophenyl)pyrazin-2-yl)-2-(3,5-difluorophenyl)ethyl)-2-(5-methoxy-1H-pyrrolo[3,2-b]pyridin-3-yl)acetamide], the half-maximal cytotoxic concentration (CC50) at 5 days in the data set “in vitro” worked out at 11100 nM. Further, the inhibition at 2 µM in the data set with HIV-IIIb is 1%.

For the molecule `NC(=O)c1cc(-c2cccnc2[C@H](Cc2cc(F)cc(F)c2)NC(=O)Cn2nc(C(=O)O)c3c2COC3)ccc1F` [Example 456, (S)-1-(2-(1-(3-(3-carbamoyl-4-fluorophenyl)pyridin-2-yl)-2-(3,5-difluorophenyl)ethylamino)-2-oxoethyl)-4,6-dihydro-1H-furo[3,4-c]pyrazole-3-carboxylic acid], in “in vitro”, the CC50 at 5 days was more than 53200 nM. For the same molecule, in the data set with HIV-IIIb, the inhibition at 2 µM was determined as 0%.

Turning to `NC(=O)c1cc(-c2cccnc2[C@H](Cc2cc(F)cc(F)c2)NC(=O)Cn2nc(C(F)(F)F)c3c2C2CC2C3O)ccc1F` (stereo partly drawn) [Example 457, 5-(2-((1S)-2-(3,5-difluorophenyl)-1-(2-(4-hydroxy-3-(trifluoromethyl)-4,4-a,5,5a-tetrahydro-1H-cyclopropa[4,5]cyclopenta[1,2-c]pyrazol-1-yl)acetamido)ethyl)pyridin-3-yl)-2-fluorobenzamide], the CC50 at 5 days in “in vitro” was more than 53200 nM. For the same molecule, the inhibition at 2 µM in the data set with HIV-IIIb was 64%.

In “in vitro”, `O=C(Cc1c[nH]c2ccc(F)cc12)NC(Cc1cc(F)cc(F)c1)c1nccnc1-c1ccc(Cl)cc1` (centres unmarked) [Example 459, N-(1-(3-(4-chlorophenyl)pyrazin-2-yl)-2-(3,5-difluorophenyl)ethyl)-2-(5-fluoro-1H-indol-3-yl)acetamide] gave a half-maximal cytotoxic concentration (CC50) at 5 days of 14200 nM. Besides, the inhibition at 2 µM in the data set on HIV-IIIb was found to be 28%.

In turn, `NC(=O)c1cc(-c2cccnc2[C@H](Cc2cc(F)cc(F)c2)NC(=O)Cn2cc(C3=CCCCC3)c(C(F)(F)F)n2)ccc1F` [Example 460, (S)-5-(2-(1-(2-(4-cyclohexenyl-3-(trifluoromethyl)-1H-pyrazol-1-yl)acetamido)-2-(3,5-difluorophenyl)ethyl)pyridin-3-yl)-2-fluorobenzamide] showed a CC50 at 5 days in “in vitro” of 8970 nM. In addition, the inhibition at 2 µM in the data set on HIV-IIIb was determined as 0%.

Take `CCc1cc(C(F)(F)F)nn1CC(=O)N[C@@H](Cc1cc(F)cc(F)c1)c1ncccc1-c1ccc(F)c(C(N)=O)c1` [Example 461, (S)-5-(2-(2-(3,5-difluorophenyl)-1-(2-(5-ethyl-3-(trifluoromethyl)-1H-pyrazol-1-yl)acetamido)ethyl)pyridin-3-yl)-2-fluorobenzamide]: the CC50 at 5 days in “in vitro” came to 32000 nM. Further, in the data set on HIV-IIIb, the inhibition at 2 µM is 25%.

`NC(=O)c1cc(-c2cccnc2[C@H](Cc2cc(F)cc(F)c2)NC(=O)Cn2cc(Br)c(C(F)(F)F)n2)ccc1F` [Example 463, (S)-5-(2-(1-(2-(4-bromo-3-(trifluoromethyl)-1H-pyrazol-1-yl)acetamido)-2-(3,5-difluorophenyl)ethyl)pyridin-3-yl)-2-fluorobenzamide]: it took 14700 nM to reach half-maximal cytotoxicity in the data set “in vitro” (CC50 at 5 days). Also, the inhibition at 2 µM in the data set with HIV-IIIb came out at 11%.

In the data set “in vitro”, `CS(=O)(=O)c1ccc2[nH]cc(CC(=O)N[C@@H](Cc3cc(F)cc(F)c3)c3ncccc3-c3ccc(F)c(C(N)=O)c3)c2c1` [Example 464, (S)-5-(2-(2-(3,5-difluorophenyl)-1-(2-(5-(methylsulfonyl)-1H-indol-3-yl)acetamido)ethyl)pyridin-3-yl)-2-fluorobenzamide] had a CC50 at 5 days of more than 53200 nM. Also, the inhibition at 2 µM in the data set with HIV-IIIb is 119%.
